# Data reported in patent publication US11053204B2, “Pyrimidinyloxy benzene derivatives as herbicides” (FMC Corporation, priority 2015, dated 2021).
# Legend:
# Assay type in all cases: in vivo
# [1] = tested on: blackgrass (Alopecurus myosuroides); assay: Test C preemergence, plant response rating; settings: Alopecurus myosuroides, pre-emergence, Preemergence
# Method in brief: (§1)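 Pre-emergence: seeds sown in loam soil–sand blend or silt loam and sprayed with test chemicals in a non-phytotoxic solvent mixture with surfactant. Post-emergence: plants 2 to 18 cm (1- to 4-leaf stage) in peat-based potting medium, same formulation. Greenhouse 13 to 15 d; visual rating 0 (no effect) to 100 (complete control) versus controls.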
# corn (Zea mays) [2] = assay: Test C preemergence, plant response rating; settings: Zea mays, pre-emergence, Preemergence
# Method in brief: as §1
# [3] = tested on: crabgrass, large (large crabgrass, Digitaria sanguinalis); assay: Test C preemergence, plant response rating; settings: Digitaria sanguinalis, pre-emergence, Preemergence
# Method in brief: as §1
# [4] = tested on: foxtail, giant (giant foxtail, Setaria faberii); assay: Test C preemergence, plant response rating; settings: Setaria faberi, pre-emergence, Preemergence
# Method in brief: as §1
# [5] = tested on: lambsquarters (Chenopodium album); assay: Test C preemergence, plant response rating; settings: Chenopodium album, pre-emergence, Preemergence
# Method in brief: as §1
# [6] = tested on: morningglory (Ipomoea coccinea); assay: Test C preemergence, plant response rating; settings: Ipomoea, pre-emergence, Preemergence
# Method in brief: as §1
# [7] = tested on: nutsedge, yellow (yellow nutsedge, Cyperus esculentus); assay: Test C preemergence, plant response rating; settings: Cyperus, pre-emergence, Preemergence
# Method in brief: as §1
# [8] = tested on: oilseed rape (Brassica napus); assay: Test C preemergence, plant response rating; settings: Brassica napus, pre-emergence, Preemergence
# Method in brief: as §1
# [9] = tested on: ryegrass, Italian (Italian ryegrass, Lolium multiflorum); assay: Test C preemergence, plant response rating; settings: Lolium multiflorum, pre-emergence, Preemergence
# Method in brief: as §1
# soybean (Glycine max) [10] = assay: Test C preemergence, plant response rating; settings: Glycine max, pre-emergence, Preemergence
# Method in brief: as §1
# [11] = tested on: velvetleaf (Abutilon theophrasti); assay: Test C preemergence, plant response rating; settings: Abutilon theophrasti, pre-emergence, Preemergence
# Method in brief: as §1
# [12] = tested on: waterhemp (common waterhemp, Amaranthus rudis); assay: Test C preemergence, plant response rating; settings: Amaranthus tuberculatus, pre-emergence, Preemergence
# Method in brief: as §1
# [13] = tested on: wheat (winter wheat, Triticum aestivum); assay: Test C preemergence, plant response rating; settings: Triticum aestivum, pre-emergence, Preemergence
# Method in brief: as §1
# corn (Zea mays) [14] = assay: Test C postemergence, plant response rating; settings: Zea mays, post-emergence
# Excerpt: (§2) Seeds of plant species selected from blackgrass (Alopecurus myosuroides), ryegrass, Italian (Italian ryegrass, Lolium multiflorum), wheat (winter wheat, Triticum aestivum), galium (catchweed bedstraw, Galium aparine), corn (Zea mays), crabgrass, large (large crabgrass, Digitaria sanguinalis), foxtail, giant (giant foxtail, Setaria faberii), johnsongrass (Sorghum halepense), lambsquarters (Chenopodium album), morningglory (Ipomoea coccinea), nutsedge, yellow (yellow nutsedge, Cyperus esculentus), pigweed (Amaranthus retroflexus), ragweed (common ragweed, Ambrosia elatior), soybean (Glycine max), barnyardgrass (Echinochloa crus-galli), oilseed rape (Brassica napus), pigweed, palmer (palmer pigweed, Amaranthus palmeri), waterhemp (common waterhemp, Amaranthus rudis), velvetleaf (Abutilon theophrasti), kochia (Kochia scoparia), surinam grass (Brachiaria decumbens), nightshade (eastern black nightshade, Solanum ptycanthum), wild poinsettia (Euphorbia heterophylla), windgrass (Apera spica-venti), and oat, wild (wild oat Avena fatua), were planted into a blend of loam soil and sand or a silt loam soil and treated preemergence with test chemicals formulated in a non-phytotoxic solvent mixture which included a surfactant.
# (§3) At the same time, plants selected from these crop and weed species and also chickweed (common chickweed, Stellaria media), buckwheat, wild (wild buckwheat, Polygonum convolvulus), wild mustard (Sinapis arvensis), field poppy (Papaver rhoeas), field violet (Viola arvensis), geranium, cutleaf (cutleaf geranium, Geranium dissectum), Canada thistle (Cirsium arvense), and speedwell (bird's-eye speedwell, Veronica persica), were planted in pots containing Sunshine Redi-Earth® planting medium comprising spaghnum peat moss, vermiculite, starter nutrients and dolomitic limestone and treated with postemergence applications of test chemicals formulated in the same manner. Plants ranged in height from 2 to 18 cm (1- to 4-leaf stage) for postemergence treatments. Treated plants and controls were maintained in a greenhouse for 13 to 15 d, after which time all species were compared to controls and visually evaluated. Plant response ratings, summarized in Table C, are based on a scale of 0 to 100 where 0 is no effect and 100 is complete control. A dash (-) response means no test result.
# [15] = tested on: crabgrass, large (large crabgrass, Digitaria sanguinalis); assay: Test C postemergence, plant response rating; settings: Digitaria sanguinalis, post-emergence
# Excerpt: as §2, §3
# [16] = tested on: foxtail, giant (giant foxtail, Setaria faberii); assay: Test C postemergence, plant response rating; settings: Setaria faberi, post-emergence
# Excerpt: as §2, §3
# [17] = tested on: galium (catchweed bedstraw, Galium aparine); assay: Test C postemergence, plant response rating; settings: Galium, post-emergence
# Excerpt: as §2, §3
# kochia (Kochia scoparia) = assay: Test C postemergence, plant response rating; settings: Bassia scoparia, post-emergence
# Excerpt: as §2, §3
# [18] = tested on: oilseed rape (Brassica napus); assay: Test C postemergence, plant response rating; settings: Brassica napus, post-emergence
# Excerpt: as §2, §3
# soybean (Glycine max) [19] = assay: Test C postemergence, plant response rating; settings: Glycine max, post-emergence
# Excerpt: as §2, §3
# [20] = 62 g ai/ha, scale 0 to 100 (0 no effect, 100 complete control)
# [21] = 125 g ai/ha, scale 0 to 100 (0 no effect, 100 complete control)
smiles,measurement,setting,value
"O=C(OCCC(F)(F)F)c1c(Cl)cccc1Oc1ncc(Cl)cn1 [Compound 15, 3,3,3-trifluoropropyl 2-chloro-6-[(5-chloro-2-pyrimidinyl)oxy]benzoate]",pest or weed control at 62 g/ha,"[1]; 62 g ai/ha, scale of 0 to 100",50%
same,pest or weed control at 125 g/ha,"[1]; 125 g ai/ha, scale of 0 to 100",80%
same,pest or weed control at 16 g/ha,"[1]; 16 g ai/ha, scale 0 to 100",0%
same,pest or weed control at 31 g/ha,"[1]; 31 g ai/ha, scale 0 to 100",0%
same,"Corn plant response rating (crop injury, 0 = no effect, 100 = complete kill) at 62 g/ha","corn (Zea mays) [2]; 62 g ai/ha, scale of 0 to 100",10%
same,"Corn plant response rating (crop injury, 0 = no effect, 100 = complete kill) at 125 g/ha","corn (Zea mays) [2]; 125 g ai/ha, scale of 0 to 100",25%
same,"Corn plant response rating (crop injury, 0 = no effect, 100 = complete kill) at 16 g/ha","corn (Zea mays) [2]; 16 g ai/ha, scale 0 to 100",0%
same,"Corn plant response rating (crop injury, 0 = no effect, 100 = complete kill) at 31 g/ha","corn (Zea mays) [2]; 31 g ai/ha, scale 0 to 100",0%
same,pest or weed control at 62 g/ha,"[3]; 62 g ai/ha, scale of 0 to 100",100%
same,pest or weed control at 125 g/ha,"[3]; 125 g ai/ha, scale of 0 to 100",100%
same,pest or weed control at 16 g/ha,"[3]; 16 g ai/ha, scale 0 to 100",95%
same,pest or weed control at 31 g/ha,"[3]; 31 g ai/ha, scale 0 to 100",100%
same,pest or weed control at 62 g/ha,"[4]; 62 g ai/ha, scale of 0 to 100",100%
same,pest or weed control at 125 g/ha,"[4]; 125 g ai/ha, scale of 0 to 100",100%
same,pest or weed control at 16 g/ha,"[4]; 16 g ai/ha, scale 0 to 100",100%
same,pest or weed control at 31 g/ha,"[4]; 31 g ai/ha, scale 0 to 100",100%
same,pest or weed control at 125 g/ha,"[5]; 125 g ai/ha, scale of 0 to 100",95%
same,pest or weed control at 16 g/ha,"[5]; 16 g ai/ha, scale 0 to 100",60%
same,pest or weed control at 31 g/ha,"[5]; 31 g ai/ha, scale 0 to 100",70%
same,pest or weed control at 62 g/ha,"[5]; 62 g ai/ha, scale 0 to 100",85%
same,pest or weed control at 125 g/ha,"[6]; 125 g ai/ha, scale of 0 to 100",60%
same,pest or weed control at 16 g/ha,"[6]; 16 g ai/ha, scale 0 to 100",20%
same,pest or weed control at 31 g/ha,"[6]; 31 g ai/ha, scale 0 to 100",20%
same,pest or weed control at 62 g/ha,"[6]; 62 g ai/ha, scale 0 to 100",35%
same,pest or weed control at 125 g/ha,"[7]; 125 g ai/ha, scale of 0 to 100",50%
same,pest or weed control at 16 g/ha,"[7]; 16 g ai/ha, scale 0 to 100",0%
same,pest or weed control at 31 g/ha,"[7]; 31 g ai/ha, scale 0 to 100",0%
same,pest or weed control at 62 g/ha,"[7]; 62 g ai/ha, scale 0 to 100",5%
same,plant injury at 125 g/ha,"[8]; 125 g ai/ha, scale of 0 to 100",100%
same,plant injury at 16 g/ha,"[8]; 16 g ai/ha, scale 0 to 100",30%
same,plant injury at 31 g/ha,"[8]; 31 g ai/ha, scale 0 to 100",100%
same,plant injury at 62 g/ha,"[8]; 62 g ai/ha, scale 0 to 100",100%
same,pest or weed control at 125 g/ha,"[9]; 125 g ai/ha, scale of 0 to 100",50%
same,pest or weed control at 16 g/ha,"[9]; 16 g ai/ha, scale 0 to 100",0%
same,pest or weed control at 31 g/ha,"[9]; 31 g ai/ha, scale 0 to 100",5%
same,pest or weed control at 62 g/ha,"[9]; 62 g ai/ha, scale 0 to 100",15%
same,plant injury at 125 g/ha,"soybean (Glycine max) [10]; 125 g ai/ha, scale of 0 to 100",55%
same,plant injury at 16 g/ha,"soybean (Glycine max) [10]; 16 g ai/ha, scale 0 to 100",0%
same,plant injury at 31 g/ha,"soybean (Glycine max) [10]; 31 g ai/ha, scale 0 to 100",10%
same,plant injury at 62 g/ha,"soybean (Glycine max) [10]; 62 g ai/ha, scale 0 to 100",40%
same,pest or weed control at 125 g/ha,"[11]; 125 g ai/ha, scale of 0 to 100",100%
same,pest or weed control at 16 g/ha,"[11]; 16 g ai/ha, scale 0 to 100",60%
same,pest or weed control at 31 g/ha,"[11]; 31 g ai/ha, scale 0 to 100",85%
same,pest or weed control at 62 g/ha,"[11]; 62 g ai/ha, scale 0 to 100",100%
same,pest or weed control at 125 g/ha,"[12]; 125 g ai/ha, scale of 0 to 100",100%
same,pest or weed control at 16 g/ha,"[12]; 16 g ai/ha, scale 0 to 100",90%
same,pest or weed control at 31 g/ha,"[12]; 31 g ai/ha, scale 0 to 100",100%
same,pest or weed control at 62 g/ha,"[12]; 62 g ai/ha, scale 0 to 100",100%
same,plant injury at 125 g/ha,"[13]; 125 g ai/ha, scale of 0 to 100",5%
same,plant injury at 16 g/ha,"[13]; 16 g ai/ha, scale 0 to 100",0%
same,plant injury at 31 g/ha,"[13]; 31 g ai/ha, scale 0 to 100",0%
same,plant injury at 62 g/ha,"[13]; 62 g ai/ha, scale 0 to 100",0%
same,"Corn plant response rating (crop injury, 0 = no effect, 100 = complete kill) at 16 g/ha","corn (Zea mays) [14]; 16 g ai/ha, scale 0 to 100",15%
same,"Corn plant response rating (crop injury, 0 = no effect, 100 = complete kill) at 31 g/ha","corn (Zea mays) [14]; 31 g ai/ha, scale 0 to 100",10%
same,plant injury at 62 g/ha,corn (Zea mays) [14]; [20],20%
same,plant injury at 125 g/ha,corn (Zea mays) [14]; [21],20%
same,pest or weed control at 16 g/ha,"[15]; 16 g ai/ha, scale 0 to 100",30%
same,pest or weed control at 31 g/ha,"[15]; 31 g ai/ha, scale 0 to 100",20%
same,pest or weed control at 62 g/ha,[15]; [20],25%
same,pest or weed control at 125 g/ha,[15]; [21],25%
same,pest or weed control at 16 g/ha,"[16]; 16 g ai/ha, scale 0 to 100",25%
same,pest or weed control at 31 g/ha,"[16]; 31 g ai/ha, scale 0 to 100",30%
same,pest or weed control at 62 g/ha,[16]; [20],20%
same,pest or weed control at 125 g/ha,[16]; [21],35%
same,pest or weed control at 16 g/ha,"[17]; 16 g ai/ha, scale 0 to 100",70%
same,pest or weed control at 31 g/ha,"[17]; 31 g ai/ha, scale 0 to 100",60%
same,pest or weed control at 62 g/ha,[17]; [20],95%
same,pest or weed control at 125 g/ha,[17]; [21],95%
same,pest or weed control at 16 g/ha,"kochia (Kochia scoparia); 16 g ai/ha, scale 0 to 100",90%
same,pest or weed control at 31 g/ha,"kochia (Kochia scoparia); 31 g ai/ha, scale 0 to 100",95%
same,pest or weed control at 62 g/ha,kochia (Kochia scoparia); [20],95%
same,pest or weed control at 125 g/ha,kochia (Kochia scoparia); [21],95%
same,plant injury at 16 g/ha,"[18]; 16 g ai/ha, scale 0 to 100",45%
same,plant injury at 31 g/ha,"[18]; 31 g ai/ha, scale 0 to 100",95%
same,plant injury at 62 g/ha,[18]; [20],100%
same,plant injury at 125 g/ha,[18]; [21],0%
same,plant injury at 16 g/ha,"soybean (Glycine max) [19]; 16 g ai/ha, scale 0 to 100",45%
same,plant injury at 31 g/ha,"soybean (Glycine max) [19]; 31 g ai/ha, scale 0 to 100",45%
same,plant injury at 62 g/ha,soybean (Glycine max) [19]; [20],80%
same,plant injury at 125 g/ha,soybean (Glycine max) [19]; [21],90%
